Laboratory results taken from ChEMBL document CHEMBL6153170 (J Med Chem, 2025).
pIC50: −log10 of the molar value. In brackets after ≈: the same amount, converted by molar mass. Activity calls are given as the source filed them. No cut-off for these calls is given here.

Columns and labels:
[1] = molecular target: T1, Protein deacetylase HDAC6 (Mus musculus) (UniProt Q9Z2V5); assay: Inhibition of HDAC6 in mouse B16-F10 cells assessed as increase in acetylated alpha-tubulin level incubated for 12 hrs by Western blot analysis; assay type: cell-based; conditions: dose 0.1-2 µM
T1 sequence (whole entry): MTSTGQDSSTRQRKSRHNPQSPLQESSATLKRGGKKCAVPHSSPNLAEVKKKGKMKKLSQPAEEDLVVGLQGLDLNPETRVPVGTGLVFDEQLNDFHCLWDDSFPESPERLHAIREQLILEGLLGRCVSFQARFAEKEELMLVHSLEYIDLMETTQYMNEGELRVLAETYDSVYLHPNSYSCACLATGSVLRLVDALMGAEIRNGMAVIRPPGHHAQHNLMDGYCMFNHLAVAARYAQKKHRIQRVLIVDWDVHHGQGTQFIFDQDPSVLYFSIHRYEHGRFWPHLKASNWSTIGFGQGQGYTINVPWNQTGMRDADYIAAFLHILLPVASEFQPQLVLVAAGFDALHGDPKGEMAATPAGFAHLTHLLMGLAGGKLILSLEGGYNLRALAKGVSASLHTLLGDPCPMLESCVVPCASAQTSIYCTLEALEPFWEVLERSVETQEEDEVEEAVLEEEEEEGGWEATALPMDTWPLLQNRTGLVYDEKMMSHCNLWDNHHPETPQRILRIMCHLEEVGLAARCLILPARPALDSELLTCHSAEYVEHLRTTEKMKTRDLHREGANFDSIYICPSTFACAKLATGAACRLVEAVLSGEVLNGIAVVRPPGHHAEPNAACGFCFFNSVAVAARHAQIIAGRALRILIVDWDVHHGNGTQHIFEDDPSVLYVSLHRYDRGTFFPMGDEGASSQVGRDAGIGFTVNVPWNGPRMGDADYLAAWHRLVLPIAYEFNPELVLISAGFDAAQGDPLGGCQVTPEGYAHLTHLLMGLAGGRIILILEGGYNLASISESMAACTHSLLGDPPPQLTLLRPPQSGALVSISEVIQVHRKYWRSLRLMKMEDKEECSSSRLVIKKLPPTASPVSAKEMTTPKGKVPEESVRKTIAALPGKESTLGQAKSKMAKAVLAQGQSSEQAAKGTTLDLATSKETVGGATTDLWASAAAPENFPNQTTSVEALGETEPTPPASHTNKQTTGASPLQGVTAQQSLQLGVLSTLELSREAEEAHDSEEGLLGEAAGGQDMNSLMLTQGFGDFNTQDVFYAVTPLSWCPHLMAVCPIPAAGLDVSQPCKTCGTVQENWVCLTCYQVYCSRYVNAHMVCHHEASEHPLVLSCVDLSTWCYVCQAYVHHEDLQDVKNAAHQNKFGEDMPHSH

[2] = test system: Jurkat; assay: Effect on HDAC6 protein level in human Jurkat T cells at 0.1 to 2 uM incubated for 12 hrs by Western blot analysis; assay type: functional, cell-based; conditions: dose 0.1-2 µM
[3] = test system: B16-F10; assay: Effect on HDAC6 protein level in mouse B16-F10 cells at 0.1 to 2 uM incubated for 12 hrs by Western blot analysis; assay type: functional, cell-based; conditions: dose 0.1-2 µM
[4] = test system: B16-F10; assay: Downregulation of p-STAT3 expression level in mouse B16-F10 cells at 0.1 to 2 uM incubated for 24 hrs by Western blot analysis; assay type: functional, cell-based; conditions: dose 0.1-2 µM
[5] = test system: B16-F10; assay: Downregulation of PD-L1 expression level in mouse B16-F10 cells at 0.1 to 2 uM incubated for 24 hrs by Western blot analysis; assay type: functional, cell-based; conditions: dose 0.1-2 µM
[6] = test system: B16-F10; assay: Effect on STAT3 expression level in mouse B16-F10 cells at 0.1 to 2 uM incubated for 24 hrs by Western blot analysis; assay type: functional, cell-based; conditions: dose 0.1-2 µM
[7] = test system: B16-F10; assay: Antitumor activity against mouse B16-F10 cells implanted in C57BL/6 mouse model assessed as tumor growth inhibition at 20 mg/kg/day, ip administered for 14 days relative to control; assay type: functional; conditions: B16-F10, 336 h, time 14 day, read-out: TGI
[8] = In vivo inhibition of PD-L1 in C57BL/6 mouse model implanted with mouse B16-F10 cells assessed as reduction in PD-L1 protein expression in tumor at 20 mg/kg/day, ip administered for 14 days by Western blot analysis relative to control; assay type: functional; conditions: C57BL/6, B16-F10, 336 h, time 14 day
[9] = test system: B16-F10; assay: Antitumor immunity activity against mouse B16-F10 cells implanted in C57BL/6 mouse model assessed as CD3+ CD4+ T cell percentage in tumor at 20 mg/kg/day, ip administered for 14 days by flow cytometric analysis (reference value: 0.095 %); assay type: functional; conditions: time 14 day
[10] = molecular target: T1, Protein deacetylase HDAC6 (Mus musculus); assay: In vivo inhibition of HDAC6 in C57BL/6 mouse model implanted with mouse B16-F10 cells assessed as increase in acetylated alpha-tubulin protein level in tumor at 20 mg/kg/day, ip administered for 14 days by Western blot analysis; assay type: functional, organism-based; conditions: time 14.0 day
[11] = test system: B16-F10; assay: Antitumor immunity activity against mouse B16-F10 cells implanted in C57BL/6 mouse model assessed as CD3+ CD8+ T cell percentage in tumor at 20 mg/kg/day, ip administered for 14 days by flow cytometric analysis (reference value: 0.52 %); assay type: functional; conditions: time 14 day
[12] = test system: B16-F10; assay: cells; conditions: Mus musculus, B16-F10, 48 h
[13] = test system: HepG2; assay: cells; conditions: Homo sapiens, HepG2, 48 h
[14] = test system: MCF7; assay: cells; conditions: Homo sapiens, MCF7, 48 h
[15] = test system: Jurkat; assay: cells; conditions: Homo sapiens, 72 h
[16] = Aqueous solubility of compound incubated for 24 hrs by miniaturized shake flask based HPLC analysis; assay type: physicochemical; conditions: buffer
[17] = molecular target: Programmed cell death protein 1/Programmed cell death 1 ligand 1 (Homo sapiens, UniProt Q9NZQ7); assay: Inhibition of PD-1/PD-L1 (unknown origin) protein-protein interaction by HTRF assay; assay type: protein-complex assay
Chain of Programmed cell death protein 1/Programmed cell death 1 ligand 1 (Q15116 whole entry, the tested form may be a part): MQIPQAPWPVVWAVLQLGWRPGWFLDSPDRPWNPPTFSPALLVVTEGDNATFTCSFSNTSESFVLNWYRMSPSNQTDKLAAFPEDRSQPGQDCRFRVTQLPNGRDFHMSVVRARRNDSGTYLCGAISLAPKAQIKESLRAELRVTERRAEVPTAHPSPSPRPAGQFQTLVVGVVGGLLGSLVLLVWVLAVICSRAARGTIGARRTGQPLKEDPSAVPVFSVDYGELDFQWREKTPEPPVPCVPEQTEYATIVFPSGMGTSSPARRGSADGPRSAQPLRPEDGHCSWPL
Chain of Programmed cell death protein 1/Programmed cell death 1 ligand 1 (Q9NZQ7 whole entry, the tested form may be a part): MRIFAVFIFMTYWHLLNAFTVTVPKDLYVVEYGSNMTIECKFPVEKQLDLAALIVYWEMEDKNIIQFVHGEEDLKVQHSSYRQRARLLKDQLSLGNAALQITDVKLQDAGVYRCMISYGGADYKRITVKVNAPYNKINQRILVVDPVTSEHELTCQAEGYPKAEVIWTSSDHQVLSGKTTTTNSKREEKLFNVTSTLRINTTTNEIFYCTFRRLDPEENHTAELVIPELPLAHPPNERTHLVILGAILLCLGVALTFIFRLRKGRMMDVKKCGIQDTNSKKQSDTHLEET

[18] = molecular target: Histone deacetylase 1 (Homo sapiens, UniProt Q13547); assay: Inhibition of recombinant full-length human HDAC1 (1 to 482 residues) extracted from baculovirus expression system using Ac-Leu-Gly-Lys (Ac)-AMC as substrate preincubated for 5 mins followed by substrate addition and measured after 30 mins by fluorescence microplate reader analysis
Chain of Histone deacetylase 1 (Q13547 whole entry, the tested form may be a part): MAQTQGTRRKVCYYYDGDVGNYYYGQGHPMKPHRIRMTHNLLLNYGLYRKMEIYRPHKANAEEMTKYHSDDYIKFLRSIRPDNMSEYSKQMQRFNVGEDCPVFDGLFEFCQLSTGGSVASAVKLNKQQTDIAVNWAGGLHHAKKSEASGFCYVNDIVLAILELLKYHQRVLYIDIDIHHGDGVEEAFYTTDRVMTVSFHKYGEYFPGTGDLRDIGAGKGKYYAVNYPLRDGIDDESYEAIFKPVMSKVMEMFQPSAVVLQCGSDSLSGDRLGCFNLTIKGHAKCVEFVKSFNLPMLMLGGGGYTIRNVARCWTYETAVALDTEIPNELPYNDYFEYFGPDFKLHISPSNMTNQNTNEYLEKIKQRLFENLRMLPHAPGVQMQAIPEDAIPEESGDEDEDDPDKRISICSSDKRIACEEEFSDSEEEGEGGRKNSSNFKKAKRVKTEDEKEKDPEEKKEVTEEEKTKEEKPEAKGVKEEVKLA

[19] = molecular target: T2, Histone deacetylase 7 (Homo sapiens, UniProt Q8WUI4); assay: Inhibition of N-terminal GST-tagged recombinant human HDAC7 (501 to 952 residues) extracted from baculovirus expression system using Ac-Leu-Gly-Lys (Tfa)-AMC as substrate preincubated for 5 mins followed by substrate addition and measured after 30 mins by fluorescence microplate reader analysis
T2 sequence (Q8WUI4 whole entry): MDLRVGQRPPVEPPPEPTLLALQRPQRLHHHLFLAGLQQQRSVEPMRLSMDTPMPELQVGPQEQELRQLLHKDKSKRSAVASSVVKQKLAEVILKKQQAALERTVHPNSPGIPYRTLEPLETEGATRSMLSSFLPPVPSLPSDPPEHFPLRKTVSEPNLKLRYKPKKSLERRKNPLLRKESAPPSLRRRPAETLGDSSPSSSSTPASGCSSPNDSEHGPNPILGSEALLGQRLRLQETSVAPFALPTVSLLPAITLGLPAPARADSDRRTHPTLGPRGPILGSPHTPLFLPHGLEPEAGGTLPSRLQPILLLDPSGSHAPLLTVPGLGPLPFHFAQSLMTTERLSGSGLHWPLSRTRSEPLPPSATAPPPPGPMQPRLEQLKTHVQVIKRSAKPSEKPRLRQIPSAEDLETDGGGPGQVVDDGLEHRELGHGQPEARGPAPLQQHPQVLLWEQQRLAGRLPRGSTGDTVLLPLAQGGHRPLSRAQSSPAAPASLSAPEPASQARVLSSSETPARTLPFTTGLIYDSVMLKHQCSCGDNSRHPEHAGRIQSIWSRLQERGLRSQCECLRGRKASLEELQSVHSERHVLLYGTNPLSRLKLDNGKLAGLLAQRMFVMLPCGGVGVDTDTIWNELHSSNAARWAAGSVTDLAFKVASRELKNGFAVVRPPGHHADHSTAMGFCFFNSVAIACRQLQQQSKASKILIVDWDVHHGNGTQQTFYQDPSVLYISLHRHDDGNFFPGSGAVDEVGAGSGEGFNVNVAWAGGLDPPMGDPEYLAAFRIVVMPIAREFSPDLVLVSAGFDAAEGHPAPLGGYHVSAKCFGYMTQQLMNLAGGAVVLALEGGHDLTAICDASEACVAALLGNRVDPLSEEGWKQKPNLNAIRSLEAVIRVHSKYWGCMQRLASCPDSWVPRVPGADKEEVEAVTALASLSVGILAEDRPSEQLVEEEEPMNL

[20] = molecular target: T3, Histone deacetylase 8 (Homo sapiens, UniProt Q9BY41); assay: Inhibition of C-terminal His-tagged recombinant full length human HDAC8 extracted from baculovirus infected Sf9 insect cells preincubated for 5 mins followed by substrate addition and measured after 30 mins by fluorescence microplate reader analysis
T3 sequence (Q9BY41 whole entry): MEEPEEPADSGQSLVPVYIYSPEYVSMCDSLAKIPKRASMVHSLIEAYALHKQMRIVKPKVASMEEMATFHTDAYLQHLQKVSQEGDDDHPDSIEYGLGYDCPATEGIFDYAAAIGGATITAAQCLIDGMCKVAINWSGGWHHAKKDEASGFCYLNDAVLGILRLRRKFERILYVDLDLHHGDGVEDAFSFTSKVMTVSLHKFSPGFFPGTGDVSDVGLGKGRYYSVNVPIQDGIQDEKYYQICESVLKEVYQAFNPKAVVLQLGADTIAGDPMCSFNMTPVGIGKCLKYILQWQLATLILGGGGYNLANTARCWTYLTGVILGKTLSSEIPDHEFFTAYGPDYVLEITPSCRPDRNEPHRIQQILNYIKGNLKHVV

[21] = test system: Jurkat; assay: Upregulation of acetylated histone H3 protein level in human Jurkat T cells at 0.1 to 2 uM incubated for 12 hrs by Western blot analysis; assay type: functional, cell-based; conditions: dose 0.1-2 µM
[22] = test system: B16-F10; assay: Upregulation of acetylated histone H3 protein level in mouse B16-F10 cells at 0.1 to 2 uM incubated for 12 hrs by Western blot analysis; assay type: functional, cell-based; conditions: dose 0.1-2 µM

With `O=C(CCCCCCNC(=O)c1cnc(N(c2ccccc2)c2ccccc2)nc1)NO` [RICOLINOSTAT] the inhibition [1] was “Dose-dependent-effect”, the Activity [2] was “inactive” and the Activity [3] was “inactive”. The Activity [4] was “Active”, the Activity [5] was “Active” and the Activity [6] was “inactive”. The inhibition in vivo at 20 mg/kg/day [7] was 45.6%, the inhibition in vivo at 20 mg/kg/day [8] was about 30% and the Activity [9] was 2.62%. For the same compound, the inhibition [10] was “Active”, the Activity [11] was 1.04% and the pIC50 [12] was under 5.00. For the same compound, the pIC50 [13] was 5.10, the pIC50 [14] was 5.08 and the pIC50 [15] was 5.17.
`COc1nc(OCc2cccc(-c3ccccc3)c2C)ccc1CNCCNC(C)=O` showed a solubility thermodynamic at 24 h [16] of 38.3 µg/mL (≈ 91.3 µM).
`Cc1c(COc2cc(OCc3cccc(C#N)c3)c(CNC(C)(C)C(=O)O)cc2Cl)cccc1-c1ccccc1` showed an inhibition in vivo at 20 mg/kg/day [7] of 43.2%, an inhibition in vivo at 20 mg/kg/day [8] of about 50% and an Activity [9] of 3.41%. The inhibition [10] was “inactive” and the Activity [11] was 4.99%.
`COc1nc(OCc2cccc(-c3ccccc3)c2C)ccc1CNCCCCC(=O)NO` showed a pIC50 [17] of 7.00, a pIC50 [18] of under 5.00 and a pIC50 [19] of under 4.00. It also gave a pIC50 [20] of under 5.00, a pIC50 [12] of under 5.00 and a pIC50 [13] of 5.01. The pIC50 [14] was under 5.00 and the pIC50 [15] was under 5.00.
Work on `COc1nc(-c2cccc(-c3ccccc3)c2C)ccc1CNCCCCC(=O)NO` yielded a pIC50 [17] of 7.10, a pIC50 [19] of under 4.00 and a pIC50 [20] of under 5.00. It also gave a pIC50 [12] of under 5.00, a pIC50 [13] of 5.01 and a pIC50 [14] of under 5.00. For the same compound, the pIC50 [15] was under 5.00.
With `O=C(CCCCCCC(=O)Nc1ccccc1)NO` the Activity [21] was “Active” and the Activity [22] was “Active”.
